In patent US20240299348A1, “MODULATORS OF TRPML, THEIR COMPOSITIONS AND METHODS OF USE” (Caraway Therapeutics, Inc., priority 2021, published 2024):
Like-named read-outs stand apart in the source and are kept apart here.

Legend:
hTRPML2 = target: T1, hTRPML2 (Homo sapiens, UniProt Q8IZK6); assay: TRPML2 fluorescent (Fluo-4) assay; format: cell-based
T1 construct: expressed in transfected cells; host or cells: HEK-293 Trex (by analogy, 'performed as above')
T1 sequence (Q8IZK6 1-566): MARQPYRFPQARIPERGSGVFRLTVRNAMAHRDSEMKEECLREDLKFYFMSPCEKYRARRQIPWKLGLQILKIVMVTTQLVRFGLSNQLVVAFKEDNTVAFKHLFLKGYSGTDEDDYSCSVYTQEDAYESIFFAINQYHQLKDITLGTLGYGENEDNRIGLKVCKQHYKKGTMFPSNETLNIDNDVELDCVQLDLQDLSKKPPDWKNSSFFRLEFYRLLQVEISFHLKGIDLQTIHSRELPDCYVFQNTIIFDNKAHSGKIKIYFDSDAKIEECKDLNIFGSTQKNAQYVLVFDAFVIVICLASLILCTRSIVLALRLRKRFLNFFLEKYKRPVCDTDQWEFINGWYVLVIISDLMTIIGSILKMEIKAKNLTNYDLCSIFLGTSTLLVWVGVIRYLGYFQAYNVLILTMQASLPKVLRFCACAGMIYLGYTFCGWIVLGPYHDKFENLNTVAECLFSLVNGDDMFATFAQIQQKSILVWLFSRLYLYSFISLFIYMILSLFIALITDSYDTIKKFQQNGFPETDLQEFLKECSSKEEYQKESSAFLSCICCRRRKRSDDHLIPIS
Procedure: (§1) Assays for TRPML2 and TRPML3 were performed as above for TRPML1, by substituting the appropriate TRPML2 or TRPML3 subtype for the TRPML1.
(§2) EC50 values were calculated using a non-linear regression of Prism.

hTRPML3 = target: T2, hTRPML3 (Homo sapiens, UniProt Q8TDD5); assay: TRPML3 fluorescent (Fluo-4) assay; format: cell-based
T2 construct: expressed in transfected cells; host or cells: HEK-293 Trex (by analogy, 'performed as above')
T2 sequence (Q8TDD5 1-553): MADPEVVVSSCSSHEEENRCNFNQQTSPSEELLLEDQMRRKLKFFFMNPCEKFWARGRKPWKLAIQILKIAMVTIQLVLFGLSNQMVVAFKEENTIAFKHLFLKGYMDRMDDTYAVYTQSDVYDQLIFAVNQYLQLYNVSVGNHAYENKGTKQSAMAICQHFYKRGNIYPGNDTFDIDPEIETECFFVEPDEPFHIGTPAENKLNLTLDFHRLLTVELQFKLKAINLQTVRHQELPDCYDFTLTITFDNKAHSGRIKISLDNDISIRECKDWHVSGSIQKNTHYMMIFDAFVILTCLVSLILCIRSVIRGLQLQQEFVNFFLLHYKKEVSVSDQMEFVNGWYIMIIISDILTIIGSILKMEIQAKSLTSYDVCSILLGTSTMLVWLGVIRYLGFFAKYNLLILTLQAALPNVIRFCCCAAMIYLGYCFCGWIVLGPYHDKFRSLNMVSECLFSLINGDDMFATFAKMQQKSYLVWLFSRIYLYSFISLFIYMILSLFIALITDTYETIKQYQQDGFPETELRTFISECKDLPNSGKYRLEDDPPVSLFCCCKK
Procedure: as §1, §2

[1] = test system: mIMCD-3 cells with the PKD1 gene knocked out; assay: Forskolin-induced cyst swelling, in vitro model of Polycystic Kidney Disease; format: cell-based, murine; settings: 5 uM forskolin, 72 hours of compound treatment; DMSO 100%+/−7.1
Procedure: Shown in FIG. 3 are results from an experiment where mIMCD-3 cells with the PKD1 gene knocked out via CRISPR-generated frameshifting indels were seeded into 384 well plates containing Matrigel and cultured in standard growth media for 4 days until they formed spherical organoid cysts as described in Reference 1 (Booij et al., SLAS Discov. 2017 September; 22(8):974-984). TRPML1 activators and vehicle were added to the cells at the indicated concentrations, in combination with 5 uM forskolin to induce cyst swelling. Four replicates per treatment were used. Approximately half of the media in each well was replaced with fresh media containing compounds and forskolin every 24 hours. After 72 hours of compound treatment, the cysts were fixed and stained for nuclei (DAPI) and actin (fluorescent-conjugated phalloidin). The ability of the TRPML1 activators to inhibit forskolin-induced cyst swelling was assessed using the 2-dimensional cross-sectional area of each cyst as measured using a high content microscope with a 4× objective, and analyzed using proprietary Ominer software. Cyst areas were averaged within each well and normalized to the vehicle control (DMSO).

TRPMLs = settings: literature report; cited from earlier work
hTRPML1 [2] = target: T3, hTRPML1 (Homo sapiens, UniProt Q9GZU1); assay: TRPML1 fluorescent (Fluo-4) assay; format: cell-based; design: fused on or other part: Possibly a GCaMP calcium sensor fused on, for the parenthetic 'GCaMP surface assay' value
T3 sequence (Q9GZU1 whole entry L15A/L16A/L577A/L578A, form open, the tested form may be a part): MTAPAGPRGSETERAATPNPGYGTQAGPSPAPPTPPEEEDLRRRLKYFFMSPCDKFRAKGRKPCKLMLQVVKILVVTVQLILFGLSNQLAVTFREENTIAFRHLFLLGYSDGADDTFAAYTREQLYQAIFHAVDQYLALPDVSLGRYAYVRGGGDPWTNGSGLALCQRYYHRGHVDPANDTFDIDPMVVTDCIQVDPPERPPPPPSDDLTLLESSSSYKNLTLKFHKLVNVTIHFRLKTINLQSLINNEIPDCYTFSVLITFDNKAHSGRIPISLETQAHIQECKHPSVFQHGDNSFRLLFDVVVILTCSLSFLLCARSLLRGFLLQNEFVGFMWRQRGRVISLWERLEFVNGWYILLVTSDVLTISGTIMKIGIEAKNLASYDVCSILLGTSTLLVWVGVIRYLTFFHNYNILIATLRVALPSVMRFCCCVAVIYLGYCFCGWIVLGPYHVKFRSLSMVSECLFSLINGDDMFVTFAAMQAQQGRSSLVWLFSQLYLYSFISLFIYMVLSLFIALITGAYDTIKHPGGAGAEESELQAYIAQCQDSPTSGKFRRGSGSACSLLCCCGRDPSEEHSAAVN
Procedure: HEK-293 Trex cells were stably transfected with a construct consisting of the human coding sequence for TRPML1 cloned into the […] plasmid pCDNA5 T/O. Mutations were introduced into the TRPML1 sequence to facilitate expression on the cell surface (Silvia Vergarajauregui, Rosa Puertollano Traffic. 2006 March; 7(3): 337-353). Briefly, the cells are cultured in 150 mm round tissue culture dishes containing 20 mL of media. The day before the assay the cells are rinsed with DPBS—Ca—Mg and then treated briefly with Trypsin-EDTA. The Trypsin-EDTA is diluted with growth media, and cells are counted. […]
(§3) 50 microliters of dye-loaded cells are dispensed into each well of the compound assay plate created above. The fluorescence in each well is then determined with an excitation wavelength of 480 nm and an emission wavelength of 540 nm using either a Molecular Devices SpectraMax multimode plate reader or a Hamamatsu FDSS/uCell plate imager.
(§4) The resulting fluorescence for each well is exported as an ascii file and loaded into our LIMS for analysis. The percent activity of each compound at each concentration is determined by comparison to the positive and negative control wells included in each plate.
as §2

TRPML1 = TRPML1 (Homo sapiens, UniProt Q9GZU1, L15A/L16A); assay: GCaMP surface assay; format: cell-based
Sequence of TRPML1 (Q9GZU1 with tags, fused parts or gaps L15A/L16A): as the sequence (Q9GZU1 whole entry L15A/L16A/L577A/L578A, form open, the tested form may be a part) above

hTRPML1 [3] = target: T3, hTRPML1; assay: TRPML1 fluorescent (Fluo-4) assay; format: cell-based; design: Secondary Screening: Fluo-4: hTRPML1: EC50 (M); HEK-293 Trex cells expressing hTRPML1; settings: activation; HEK-293 Trex cells expressing hTRPML1; read-out: Secondary Screening: Fluo-4: hTRPML1: EC50
Procedure: HEK-293 Trex cells were stably transfected with a construct consisting of the human coding sequence for TRPML1 cloned into the […] plasmid pCDNA5 T/O. Mutations were introduced into the TRPML1 sequence to facilitate expression on the cell surface (Silvia Vergarajauregui, Rosa Puertollano Traffic. 2006 March; 7(3): 337-353). Briefly, the cells are cultured in 150 mm round tissue culture dishes containing 20 mL of media. The day before the assay the cells are rinsed with DPBS—Ca—Mg and then treated briefly with Trypsin-EDTA. The Trypsin-EDTA is diluted with growth media, and cells are counted. 38×10^6 cells are re-plated into 150 mm round tissue culture dishes in media containing 0.5 ug/mL doxycycline to induce expression of hTRPML1.
The day of the experiment cells are lifted from the plates as above and collected by centrifugation. The cells are then suspended in dye loading buffer consisting of Ringer's solution supplemented with 0.1% Pluronic Acid and 1 micromolar Fluo4-AM dye. Cells are loaded for ˜60 minutes in the dark with occasional mixing. The cells are collected by centrifugation, the loading media aspirated, and the cells resuspended in 25 mL Ringer's solution and incubated ˜60 minutes in the dark. The cells are again collected by centrifugation, rinsed in Ringer's Solution and resuspended to 0.2×10^6 cells/mL in modified Ringer's solution containing 10 mM calcium.
Compounds are dissolved to a concentration of 10 millimolar with DMSO. Compound plates are created by dispensing compounds into 384 well black wall clear bottom plates (Greiner 781091). Positive and negative controls are included on each plate. Typically, different amounts of each compound are tested ranging from 100 nanoMoles (20 micromolar final concentration) decreasing in half-log steps to 31 picoMoles (6 nanomolar final concentration). Each concentration is typically tested in triplicate.
as §3, §4, §2

[4] = test system: HeLa cells with the NPC1 gene knocked out; assay: Total hexosylceramides in HeLa cells with NPC1 gene knocked out; format: cell-based; settings: NPC1 knockout HeLa, FIG. 1
Procedure: (§5) HeLa cells with the NPC1 gene knocked out via CRISPR-generated frameshifting indels were grown in standard cell culture conditions (DMEM high glucose with 10% FBS and penicillin/streptomycin). Cells were treated with the indicated concentrations of TRPML1 activators for 48 hours; media and compound were refreshed every 24 hours (FIG. 1). Two replicates per treatment were used. Cells were pelleted in PBS, frozen, and shipped to the Medical University of South Carolina (MUSC) for lipid quantitation by mass spectrometry. Lipid quantities were normalized to total inorganic phosphate in the cell sample as assessed by mass spectrometry. […] Statistical significance versus DMSO (p values indicated above) unpaired t-test.

[5] = test system: HeLa cells with the NPC2 gene knocked out; assay: Total hexosylceramides in HeLa cells with NPC2 gene knocked out; format: cell-based; settings: NPC2 knockout HeLa
Procedure: as §5
Shown in FIG. 2 are results from the same experiment described in FIG. 1, but using HeLa cells with the NPC2 gene knocked out via CRISPR.

[6] = activation, read-out: Secondary Screening: Fluo-4: hTRPML2: EC50
[7] = activation, read-out: Secondary Screening: Fluo-4: hTRPML3: EC50

| EC50 (hTRPML2; [6]) | EC50 (hTRPML3; [7]) | EC50 (hTRPML1 [3]) | Compound | cyst area normalized to the vehicle control (DMSO) [1] | further results |
| --- | --- | --- | --- | --- | --- |
|  |  |  | CC1CC(C)(C)N(C(=O)CN2C(=O)c3ccccc3C2=O)c2ccccc21 (stereo not drawn) [Compound 126, reference compound] | 72.3%+/−2.5 | TRPML2 activation EC50 (Table 2, class) (hTRPML2; Table 2 key): B/C/D; EC50 (hTRPML2; read-out: TRPML2 activation EC50 (Table 2, number)): 5.41 µM; EC50 (hTRPML3; read-out: TRPML3 activation EC50 (Table 2, number)): 1580 nM; concentration needed to effectively activate TRPMLs (TRPMLs): ~10 µM; TRPML1 activation EC50 (Table 2, class) (hTRPML1 [2]; Table 2 key): B/C/D; EC50 (hTRPML1 [2]; read-out: TRPML1 activation EC50 (Table 2, number)): 3.52 µM |
|  |  |  | CN(C)S(=O)(=O)c1ccc(S(=O)(=O)Nc2ccccc2N2CCN(c3ccc(Cl)cc3F)CC2)cc1 [Compound 125] | 69.6%+/−4.4 | EC50 (TRPML1): 453 nM |
| 1 to 5 µM | 300 to 1000 nM | < 300 nM | CN(C)S(=O)(=O)c1ccc(S(=O)(=O)N[C@@H]2CCCCC[C@H]2N2CCN(c3ccc(Cl)cc3F)CC2)cc1 (relative stereo) [Compound 120, trans-N^1-(2-(4-(4-chloro-2-fluorophenyl)piperazin-1-yl)cycloheptyl)-N^4,N^4 dimethylbenzene-1,4-disulfonamide] |  |  |
| < 0.3 µM | < 300 nM | 300 to 1000 nM | CN(c1ccccc1NS(=O)(=O)c1ccc(S(=O)(=O)N(C)C)cc1)C1CCN(c2ccc(Cl)cc2F)C1 (stereo not drawn) [Compound 101, N^1-(2-((1-(4-chloro-2-fluorophenyl)pyrrolidin-3-yl)(methyl)amino)phenyl)-N^4,N^4-dimethylbenzene-1,4-disulfonamide] | 51.2%+/−1.6 | total hexosylCeramides compared with DMSO vehicle (in words) [4]: reduced; total HexosylCeramides ([5]; 48 hours treatment, DMSO 6.45+/−0.28): 3.48+/−0.20 HexCer/nmol Pi/sample; total hexosylCeramides compared with DMSO vehicle (in words) ([5]; FIG. 2): reduced |
| 1 to 5 µM | 300 to 1000 nM | 1000 to 5000 nM | CN(c1ccccc1NS(=O)(=O)c1ccc(S(=O)(=O)N(C)C)cc1)C1CCN(C(=O)Oc2ccccc2)C1 (stereo not drawn) [Compound 123, Phenyl 3-((2-((4-(N,N-dimethylsulfamoyl)phenyl)sulfonamido)phenyl)(methyl)amino)pyrrolidine-1-carboxylate] |  |  |
| 1 to 5 µM | 300 to 1000 nM | < 300 nM | CN(C)S(=O)(=O)c1ccc(S(=O)(=O)N[C@@H]2CCCCC[C@@H]2N2CCN(c3ccc(Cl)cc3F)CC2)cc1 (relative stereo) [Compound 122, Cis-N^1-(2-(4-(4-chloro-2-fluorophenyl)piperazin-1-yl)cycloheptyl)-N^4,N^4-dimethylbenzene-1,4-disulfonamide] |  |  |
| 1 to 5 µM | 300 to 1000 nM | 1000 to 5000 nM | CN(C1CCN(c2ccccc2F)C1)[C@H]1CCCC[C@@H]1NS(=O)(=O)c1ccc(S(=O)(=O)N(C)C)cc1 (relative stereo) [Compound 121, trans-N^1-(2-((1-(2-fluorophenyl)pyrrolidin-3-yl)(methyl)amino)-cyclohexyl)-N^4,N^4-dimethylbenzene-1,4-disulfonamide] |  |  |
|  |  |  | Cc1ccc(S(=O)(=O)Nc2ccccc2N2CCCCC2)s1 [Compound 127, reference compound] | 79.6%+/−3.8 | EC50 (TRPML1): 2640 nM |
| > 5 µM | 1000 to 5000 nM | 300 to 1000 nM | CN(c1ccccc1NS(=O)(=O)c1ccc(S(C)(=O)=O)cc1)C1CCN(c2ccc(Cl)cc2F)C1 (stereo not drawn) [Compound 113, N-(2-((1-(4-Chloro-2-fluorophenyl)pyrrolidin-3-yl)(methyl)amino)phenyl)-4-(methylsulfonyl)benzene-sulfonamide] |  |  |
